Test results taken from ChEMBL document CHEMBL1914417 (Bioorg Med Chem Lett, 2011).
Numbering of substitutions follows the chain as printed. Calls of active or inactive are those of the source. The rule behind the calls is not given here.

Assays:
[1] = target: Muscarinic acetylcholine receptor M3 (Homo sapiens, UniProt P20309); assay: Agonist activity at human recombinant muscarinic M3 receptor by HTS cell based assay; format: functional
[2] = target: T1, Muscarinic acetylcholine receptor M4 (Rattus norvegicus, UniProt P08485); assay: Agonist activity at rat muscarinic M4 receptor expressed in CHO cells; format: functional, cell-based
T1 sequence (P08485 whole entry): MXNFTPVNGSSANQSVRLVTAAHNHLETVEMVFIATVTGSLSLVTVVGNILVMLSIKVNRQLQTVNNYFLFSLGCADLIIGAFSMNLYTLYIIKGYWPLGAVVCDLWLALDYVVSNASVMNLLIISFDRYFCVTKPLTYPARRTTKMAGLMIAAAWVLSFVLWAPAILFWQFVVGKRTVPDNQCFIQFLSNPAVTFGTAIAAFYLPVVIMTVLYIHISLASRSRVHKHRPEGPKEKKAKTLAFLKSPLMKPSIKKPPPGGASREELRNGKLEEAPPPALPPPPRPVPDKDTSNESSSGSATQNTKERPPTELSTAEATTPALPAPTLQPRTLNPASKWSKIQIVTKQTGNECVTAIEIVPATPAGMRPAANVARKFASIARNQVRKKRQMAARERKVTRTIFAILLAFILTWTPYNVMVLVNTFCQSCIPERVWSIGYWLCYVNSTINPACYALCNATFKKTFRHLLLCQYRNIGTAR

[3] = target: Muscarinic acetylcholine receptor M3 (Rattus norvegicus, UniProt P08483); assay: Agonist activity at rat recombinant muscarinic M3 receptor by HTS cell based assay; format: functional
Chain of Muscarinic acetylcholine receptor M3 (Rattus norvegicus, UniProt P08483) (P08483 whole entry): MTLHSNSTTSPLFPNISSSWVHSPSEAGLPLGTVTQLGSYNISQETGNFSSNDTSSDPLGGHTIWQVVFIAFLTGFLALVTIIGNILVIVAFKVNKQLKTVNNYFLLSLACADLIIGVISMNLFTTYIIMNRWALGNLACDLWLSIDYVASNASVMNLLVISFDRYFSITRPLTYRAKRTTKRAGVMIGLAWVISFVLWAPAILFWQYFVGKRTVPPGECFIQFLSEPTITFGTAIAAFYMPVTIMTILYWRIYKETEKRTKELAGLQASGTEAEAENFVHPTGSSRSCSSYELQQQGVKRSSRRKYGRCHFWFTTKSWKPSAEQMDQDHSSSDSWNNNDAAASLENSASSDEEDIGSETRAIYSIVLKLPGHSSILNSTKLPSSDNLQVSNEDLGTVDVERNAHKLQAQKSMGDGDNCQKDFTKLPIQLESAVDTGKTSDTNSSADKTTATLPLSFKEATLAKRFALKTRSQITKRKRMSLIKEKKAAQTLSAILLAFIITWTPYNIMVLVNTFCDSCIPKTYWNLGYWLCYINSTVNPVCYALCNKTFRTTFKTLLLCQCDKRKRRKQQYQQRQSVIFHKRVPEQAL

[4] = target: T1, Muscarinic acetylcholine receptor M4; assay: Agonist activity at rat recombinant muscarinic M4 receptor by HTS cell based assay; format: functional
[5] = target: T2, Muscarinic acetylcholine receptor M4 (Homo sapiens, UniProt P08173); assay: Agonist activity at human recombinant muscarinic M4 receptor by HTS cell based assay; format: functional
T2 sequence (P08173 whole entry): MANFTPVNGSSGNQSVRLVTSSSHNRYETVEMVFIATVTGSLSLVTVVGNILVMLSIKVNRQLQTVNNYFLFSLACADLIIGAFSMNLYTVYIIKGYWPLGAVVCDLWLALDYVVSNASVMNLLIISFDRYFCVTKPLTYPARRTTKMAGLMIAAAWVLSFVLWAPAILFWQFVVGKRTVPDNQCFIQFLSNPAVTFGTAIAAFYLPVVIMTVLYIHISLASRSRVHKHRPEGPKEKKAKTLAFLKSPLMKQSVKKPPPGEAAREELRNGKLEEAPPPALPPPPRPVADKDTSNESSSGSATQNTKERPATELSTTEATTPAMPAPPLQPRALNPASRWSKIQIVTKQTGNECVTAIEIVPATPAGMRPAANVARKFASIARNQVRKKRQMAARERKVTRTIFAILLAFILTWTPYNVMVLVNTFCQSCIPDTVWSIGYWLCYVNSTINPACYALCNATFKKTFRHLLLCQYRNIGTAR

[6] = target: T3, Muscarinic acetylcholine receptor M1 (Homo sapiens, UniProt P11229); assay: Agonist activity at human recombinant muscarinic M1 receptor by HTS cell based assay; format: functional
T3 sequence (P11229 whole entry): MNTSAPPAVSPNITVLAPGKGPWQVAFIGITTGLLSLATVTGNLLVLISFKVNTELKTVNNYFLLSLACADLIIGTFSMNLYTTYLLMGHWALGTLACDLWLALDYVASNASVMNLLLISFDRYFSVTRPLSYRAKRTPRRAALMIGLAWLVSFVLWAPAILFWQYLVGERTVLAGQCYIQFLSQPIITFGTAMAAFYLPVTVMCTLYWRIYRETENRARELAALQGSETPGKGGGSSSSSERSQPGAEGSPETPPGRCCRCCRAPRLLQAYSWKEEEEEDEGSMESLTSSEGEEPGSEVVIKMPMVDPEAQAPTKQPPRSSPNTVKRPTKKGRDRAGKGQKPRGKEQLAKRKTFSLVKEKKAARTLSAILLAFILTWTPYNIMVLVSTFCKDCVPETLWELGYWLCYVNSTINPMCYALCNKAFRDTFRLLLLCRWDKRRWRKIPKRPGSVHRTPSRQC

[7] = target: T4, Muscarinic acetylcholine receptor M1 (Rattus norvegicus, UniProt P08482); assay: Agonist activity at rat muscarinic M1 receptor expressed in CHO cells; format: functional, cell-based
T4 sequence (P08482 whole entry): T3 sequence (P11229 whole entry) with A5V, T254S, P309S, R320K, A337G, I413V

[8] = AUC in rat at 1 mg/kg, iv; format: ADME, organism-based; parameters: dose 1 mg/kg, route intravenous; settings: plasma
[9] = AUC in rat at 10 mg/kg, po; format: ADME, organism-based; parameters: dose 10 mg/kg, route oral; settings: plasma
[10] = Plasma concentration in Sprague-Dawley rat at 10 mg/kg, po after 90 mins; format: ADME, organism-based; parameters: dose 10 mg/kg, route oral
[11] = Half life in rat 1 mg/kg, iv and 10 mg/kg, po; format: ADME, organism-based; settings: in vivo
Cytochrome P450 2D6 = Cytochrome P450 2D6 (Homo sapiens, UniProt P10635); assay: Inhibition of CYP2D6; format: ADME
Chain of Cytochrome P450 2D6 (P10635 whole entry): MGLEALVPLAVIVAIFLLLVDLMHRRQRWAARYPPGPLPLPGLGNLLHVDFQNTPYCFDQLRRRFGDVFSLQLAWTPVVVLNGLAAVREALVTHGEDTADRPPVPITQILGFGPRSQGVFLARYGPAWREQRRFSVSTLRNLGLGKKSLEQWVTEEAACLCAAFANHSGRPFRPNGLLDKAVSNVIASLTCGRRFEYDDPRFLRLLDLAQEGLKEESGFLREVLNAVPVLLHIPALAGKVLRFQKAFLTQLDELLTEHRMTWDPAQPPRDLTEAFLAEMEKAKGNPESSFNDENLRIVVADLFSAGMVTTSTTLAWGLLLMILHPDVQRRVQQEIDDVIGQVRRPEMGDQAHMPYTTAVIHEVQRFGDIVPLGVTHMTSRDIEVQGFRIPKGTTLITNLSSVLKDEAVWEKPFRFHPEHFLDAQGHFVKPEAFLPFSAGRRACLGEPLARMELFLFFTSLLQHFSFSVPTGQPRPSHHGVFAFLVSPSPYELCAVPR

[12] = Drug uptake in Sprague-Dawley rat brain at 10 mg/kg, po after 90 mins; format: ADME, organism-based; parameters: dose 10 mg/kg, route oral; settings: read-out: Drug uptake
Cytochrome P450 1A2 = target: T5, Cytochrome P450 1A2 (Homo sapiens, UniProt P05177); assay: Inhibition of CYP1A2; format: ADME
T5 sequence (P05177 whole entry): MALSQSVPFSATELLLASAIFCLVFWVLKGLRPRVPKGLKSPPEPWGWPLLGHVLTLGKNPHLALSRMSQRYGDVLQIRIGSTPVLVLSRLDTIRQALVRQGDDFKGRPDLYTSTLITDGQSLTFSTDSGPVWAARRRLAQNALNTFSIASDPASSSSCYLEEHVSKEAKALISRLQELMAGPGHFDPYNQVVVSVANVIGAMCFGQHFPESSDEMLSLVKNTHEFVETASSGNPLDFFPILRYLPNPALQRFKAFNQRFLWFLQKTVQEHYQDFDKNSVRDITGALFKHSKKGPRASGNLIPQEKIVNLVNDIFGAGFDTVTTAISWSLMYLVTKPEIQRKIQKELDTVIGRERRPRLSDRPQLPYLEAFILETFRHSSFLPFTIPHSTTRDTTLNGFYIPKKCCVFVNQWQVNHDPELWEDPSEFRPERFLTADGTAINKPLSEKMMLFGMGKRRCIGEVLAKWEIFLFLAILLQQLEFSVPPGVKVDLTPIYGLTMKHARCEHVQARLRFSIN

[13] = target: T6, Muscarinic acetylcholine receptor M1 (Rattus norvegicus) (UniProt P08482); assay: Agonist activity at rat muscarinic M1 receptor expressed in CHO cells at 10 uM; format: functional, cell-based
T6 sequence (whole entry): T3 sequence (P11229 whole entry) with A5V, T254S, P309S, R320K, A337G, I413V

Chain of Muscarinic acetylcholine receptor M3 (Homo sapiens, UniProt P20309) (P20309 whole entry): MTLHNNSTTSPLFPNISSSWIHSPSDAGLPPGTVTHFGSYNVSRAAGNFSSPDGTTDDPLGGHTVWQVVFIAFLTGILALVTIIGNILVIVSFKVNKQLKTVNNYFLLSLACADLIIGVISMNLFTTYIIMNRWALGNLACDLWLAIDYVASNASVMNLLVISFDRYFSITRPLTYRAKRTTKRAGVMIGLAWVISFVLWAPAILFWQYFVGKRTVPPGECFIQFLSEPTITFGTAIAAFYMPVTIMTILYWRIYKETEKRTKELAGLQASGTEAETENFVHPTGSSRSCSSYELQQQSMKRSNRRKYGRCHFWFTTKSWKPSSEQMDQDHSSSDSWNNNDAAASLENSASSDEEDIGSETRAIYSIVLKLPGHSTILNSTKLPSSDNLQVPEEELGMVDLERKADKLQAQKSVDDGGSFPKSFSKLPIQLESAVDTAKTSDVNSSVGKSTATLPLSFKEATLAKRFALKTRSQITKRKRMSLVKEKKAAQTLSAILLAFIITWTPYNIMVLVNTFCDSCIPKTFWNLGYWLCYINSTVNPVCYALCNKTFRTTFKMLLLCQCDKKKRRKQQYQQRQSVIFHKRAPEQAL

Row | Structure (SMILES) | EC50 [1] [µM] | EC50 [2] [µM] | EC50 [3] [µM] | EC50 [4] [µM] | EC50 [5] [µM] | EC50 [6] [µM] | EC50 ([7]; cho) [µM] | AUC [8] [ng·h/mL] | AUC [9] [ng·h/mL] | concentration at 1.5 h [10] [nM] | half-life [11] [min] | IC50 (Cytochrome P450 2D6) [µM] | concentration at 1.5 h [12] [nM] | IC50 (Cytochrome P450 1A2) [µM] | activation [13] | EC50 [7] [µM]
1 | CCOC(=O)N1CCC(NCCNC(=O)c2ccccc2C)CC1 | > 30 | > 30 | > 30 | > 30 | > 30 | 2.3 | 0.2 |  |  |  |  |  |  |  |  | 
2 | CCOC(=O)N1CCC(N2CCC[C@@H](NC(=O)c3ccccc3C)C2)CC1 | > 30 | > 30 | > 30 | > 30 | > 30 | 1.3 |  | 1100 | 4200 | 1450 | 46 | > 25 | 1890 | > 25 | Active | 0.11
